# Laboratory results published in publication PMC10801775 (The Journal of Pharmacology and Experimental Therapeutics, 2024).
# What was measured:
# [1] = design: species or system Sprague-Dawley rats; conditions: rat, in vivo
# [2] = rat, in vivo
smiles,measurement,setting,value
"CCOP(=O)(OCC)Oc1ccc([N+](=O)[O-])cc1 [POX, O,O-diethyl-O-p-nitrophenylphosphate]",brain AUC as % of naïve,[1],> 80%
same,"heart AUC restored, % of naïve AUC level",[1],25%
same,liver AUC increase versus naïve,[1],4 fold
same,"lung AUC restored, % of naïve AUC level",[1],50%
same,mean brain region radioactivity higher than naïve rats,[1],up to 2 fold
same,RBC fraction relative to naïve and 60-minute studies,[2],about twice
same,"RBC fraction, % of total radioactivity",[2],20%
same,metabolite level in blood relative to naïve rats (or rats 60 minutes after POX),[2],5 fold
same,reduction of total percent radioactivity of plasma proteins,[2],~20%
